How the values were obtained:
Experiment in all cases: relative viability (nuclei count vs DMSO), 5 days (fraction); higher = more cells survive
[1] = compound: CC1CC(=O)N(C2=CN=C(N=C2N1C3CCCC3)NC4=C(C=C(C=C4)C(=O)NC5CCN(CC5)C)OC)C [NPK76-II-72-1] + Cc1nc(Nc2ncc(C(=O)Nc3c(C)cccc3Cl)s2)cc(N2CCN(CCO)CC2)n1 [Dasatinib] (partner 0.075 µM)
Outline: (§1)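 Relative viability equals treated-well nuclei counts divided by vehicle-well nuclei counts. Counts came from 4× images of lung cancer cell lines grown in 1536-well plates for 5 days after pin-tool dosing on the day after seeding. Dosing used one drug alone or a fixed anchor-drug dose plus five library-drug doses (not always all listed) in √10 steps, and values are medians of duplicate plates.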

[2] = compound: CC1CC(=O)N(C2=CN=C(N=C2N1C3CCCC3)NC4=C(C=C(C=C4)C(=O)NC5CCN(CC5)C)OC)C [NPK76-II-72-1] + C[C@]1(O)C[C@@H](c2nc(-c3ccc4ccc(-c5ccccc5)nc4c3)c3c(N)nccn32)C1 [Linsitinib] (partner 1 µM)
Outline: as §1

[3] = compound: CC1CC(=O)N(C2=CN=C(N=C2N1C3CCCC3)NC4=C(C=C(C=C4)C(=O)NC5CCN(CC5)C)OC)C [NPK76-II-72-1] + Nc1nc2[nH]cc(CCc3ccc(C(=O)N[C@@H](CCC(=O)O)C(=O)O)cc3)c2c(=O)[nH]1 [Pemetrexed] (partner 0.2 µM)
Outline: as §1

[4] = compound: CC[C@@H]1C(=O)N(C)c2cnc(Nc3ccc(C(=O)NC4CCN(C)CC4)cc3OC)nc2N1C1CCCC1 [BI-2536] + CS(=O)(=O)CCNCc1ccc(-c2ccc3ncnc(Nc4ccc(OCc5cccc(F)c5)c(Cl)c4)c3c2)o1 [Lapatinib] (partner 2 µM)
Outline: as §1

Row | Cell Line | relative viability ([1]; first compound 0.01 µM) | relative viability ([1]; first compound 0.03162 µM) | relative viability ([1]; first compound 0.1 µM) | relative viability ([1]; first compound 0.3162 µM) | relative viability ([1]; first compound 1 µM) | relative viability ([2]; first compound 0.01 µM) | relative viability ([2]; first compound 0.03162 µM) | relative viability ([2]; first compound 0.1 µM) | relative viability ([2]; first compound 0.3162 µM) | relative viability ([2]; first compound 1 µM) | relative viability ([3]; first compound 0.01 µM) | relative viability ([3]; first compound 0.03162 µM) | relative viability ([3]; first compound 0.1 µM) | relative viability ([3]; first compound 0.3162 µM) | relative viability ([3]; first compound 1 µM) | relative viability ([4]; first compound 0.01 µM) | relative viability ([4]; first compound 0.03162 µM) | relative viability ([4]; first compound 0.1 µM) | relative viability ([4]; first compound 0.3162 µM) | relative viability ([4]; first compound 1 µM)
1 | LXF-289 | 0.211 | 0.199 | 0.199 | 0.218 | 0.238 | 0.931 | 0.977 | 0.921 | 0.925 | 1 | 0.885 | 0.976 | 0.89 | 0.892 | 0.855 | 0.889 | 0.839 | 0.443 | 0.0583 | 0.0798
2 | NCI-H650 | 0.457 | 0.455 | 0.411 | 0.423 | 0.494 | 0.941 | 1.02 | 0.652 | – | 0.845 | 1.01 | 0.972 | 0.879 | 0.922 | 0.994 | 0.882 | 0.85 | 0.166 | 0.214 | 0.151
3 | NCI-H2085 | 0.258 | 0.266 | 0.24 | 0.227 | 0.22 | 0.914 | 0.997 | 0.934 | 0.87 | 0.923 | 0.855 | 0.946 | 0.972 | 0.915 | 0.974 | 0.781 | 0.71 | 0.427 | 0.252 | 0.324
4 | NCI-H1793 | 0.328 | 0.432 | 0.412 | 0.383 | 0.386 | 0.771 | 0.962 | 0.971 | 0.495 | 0.742 | – | 1.05 | 0.92 | 0.806 | 0.981 | 0.581 | 0.507 | 0.256 | – | 0.193
5 | LC-2-ad | 0.569 | 0.862 | 0.485 | 0.438 | 0.791 | 0.78 | 0.767 | 0.854 | 0.801 | 0.834 | 0.24 | 0.281 | 0.269 | 0.266 | 0.272 | 0.995 | 0.715 | 0.121 | 0.127 | 0.131
6 | COR-L 105 | 0.33 | 0.317 | 0.384 | 0.323 | 0.467 | 1.01 | 0.936 | 1.09 | 0.738 | 1.13 | 1.06 | 1.07 | 0.992 | 1.02 | 1.12 | 0.309 | 0.364 | 0.271 | 0.248 | 0.269
7 | NCI-H1355 | 0.689 | 0.627 | 0.744 | 0.617 | 0.731 | 0.844 | 0.837 | 0.809 | 0.792 | 0.848 | 1.02 | 1 | 0.99 | 0.972 | 1.06 | 0.996 | 0.976 | 0.62 | 0.194 | 0.183
8 | H3255 | 0.406 | 0.314 | 0.323 | 0.245 | 0.35 | 0.973 | 0.994 | 0.915 | 0.677 | 1.14 | 0.565 | 0.517 | 0.604 | 0.446 | 0.602 | 0.256 | 0.225 | 0.076 | 0.117 | 0.143
